# Columns and labels:
# male SD rats = assay: Single oral dose, 24-hour cumulative food intake study in rats (Example 6, first in vivo study); set-up: species or system rat; details: for Cumulative food intake as compared with vehicle: all indicated time intervals, DA 23.1 mg/kg, DB 26.8 mg/kg
# Procedure: This example compares efficacy of DA versus DB in food inhibition and body weight control. As a background, according to Avau et al., Sci. Rep. […] In our first in vivo study, 45 male SD rats (purchased from Envigo at 8-10 weeks of age) were divided into three groups (15 in each group), which were administered a single oral dose of vehicle (distilled water), 26.8 mg/kg of DB, or 23.1 mg/kg of DA respectively, with a 24-hour observational period, to compare the efficacy of DB versus DA in reducing food intake.
# male C57BL/6N DIO mice = assay: 56-day BID treatment of DIO mice: food consumption and body weight (Example 6, second in vivo study); set-up: species or system mouse; details: for Body weight gain as compared to vehicle treatment: high-fat diet, oral BID 56 days
# Procedure: In a second in vivo study, 45 male C57BL/6N DIO mice (purchased from Envigo at 18 weeks of age, fed with high-fat diet) were divided into three groups (15 in each group), which were orally administered vehicle (distilled water), 26.8 mg/kg of DB, or 23.1 mg/kg of DA respectively, twice daily (BID), with a 56-day treatment period to compare the efficacy of DB versus DA in food intake reduction and body weight control. Briefly, once weekly, the food weight for each cage was recorded at 0 hour and then 24 hours later, permitting calculation of food consumption for that 24-hour interval. In addition, starting from Day 0, the mice were weighed three times weekly (every 2-3 days).
# The mean food consumption per animal for 24-hour intervals at indicated measurement days during the treatment period are shown in Table.
# The mean absolute body weight change (in grams) and normalized body weight change (% of baseline) during 56-day treatment period of the three treatment groups are presented in […]. and Table 6.
# rodent obesity models = details: benzoate salt of denatonium; cited from earlier work
# healthy volunteers = details: cited from earlier work
# [1] = test system: C57BL/6NTad mice, diet-induced obesity (DIO) mouse model; assay: 56-day diet-induced obesity (DIO) mouse weight loss study, DA versus DB (Example 3); assay type: in vivo; details: DA 23.1 mg/kg BID PO
# From the text: The 56-day study determined the behavioral effects of bitter taste receptor agonists denatonium acetate (DA) compared to denatonium benzoate (DB) in a diet-induced obesity (DIO) mouse model. […] The study duration was a 3-5 day acclimation period +28 day study period and 2-3 day testing period after study. […] The mice were C57BL/6NTad mice at least 12 weeks in age and 15 mice per group (low dose DA, higher dose DA, high dose DB and control). […] Metabolic biomarkers (blood glucose, blood insulin, blood HbA1c) were measured at the beginning and end of the study. The DA, DB or distilled water control was administered per ostium gavage (PO) at a volume of 5 mL/kg body weight.
# [2] = oral BID, DA 23.1 mg/kg or DB 26.8 mg/kg
structure (smiles),measurement,setting,value
"CC[N+](CC)(CC(=O)Nc1c(C)cccc1C)Cc1ccccc1.O=C([O-])c1ccccc1 [DB, benzyl-[2-(2,6-dimethylanilino)-2-oxoethyl]-diethylazanium benzoate]",Cumulative food intake as compared with vehicle,male SD rats,reduced cumulative food intake
same,Body weight gain as compared to vehicle treatment,"male C57BL/6N DIO mice; DA 23.1 mg/kg, DB 26.8 mg/kg",less body weight gain
same,Mean normalized body weight (% of baseline) on study day 0,male C57BL/6N DIO mice; [2],100.0 % of baseline
same,Mean normalized body weight (% of baseline) on study day 4,"male C57BL/6N DIO mice; oral BID, DA 23.1 mg/kg or DB 26.8 mg/kg, day 4",100.5 % of baseline
same,Mean normalized body weight (% of baseline) on study day 7,"male C57BL/6N DIO mice; oral BID, DA 23.1 mg/kg or DB 26.8 mg/kg, day 7",99.7 % of baseline
same,Mean normalized body weight (% of baseline) on study day 9,"male C57BL/6N DIO mice; oral BID, DA 23.1 mg/kg or DB 26.8 mg/kg, day 9",99.4 % of baseline
same,Mean normalized body weight (% of baseline) on study day 11,"male C57BL/6N DIO mice; oral BID, DA 23.1 mg/kg or DB 26.8 mg/kg, day 11",99.0 % of baseline
same,Mean normalized body weight (% of baseline) on study day 14,"male C57BL/6N DIO mice; oral BID, DA 23.1 mg/kg or DB 26.8 mg/kg, day 14",99.3 % of baseline
same,Mean normalized body weight (% of baseline) on study day 16,"male C57BL/6N DIO mice; oral BID, DA 23.1 mg/kg or DB 26.8 mg/kg, day 16",98.0 % of baseline
same,Mean normalized body weight (% of baseline) on study day 18,"male C57BL/6N DIO mice; oral BID, DA 23.1 mg/kg or DB 26.8 mg/kg, day 18",97.9 % of baseline
same,Mean normalized body weight (% of baseline) on study day 21,"male C57BL/6N DIO mice; oral BID, DA 23.1 mg/kg or DB 26.8 mg/kg, day 21",99.5 % of baseline
same,Mean normalized body weight (% of baseline) on study day 23,"male C57BL/6N DIO mice; oral BID, DA 23.1 mg/kg or DB 26.8 mg/kg, day 23",100.5 % of baseline
same,Mean normalized body weight (% of baseline) on study day 25,male C57BL/6N DIO mice; [2],100.3 % of baseline
same,Mean normalized body weight (% of baseline) on study day 28,male C57BL/6N DIO mice; [2],100.2 % of baseline
same,Mean normalized body weight (% of baseline) on study day 30,male C57BL/6N DIO mice; [2],100.5 % of baseline
same,Mean normalized body weight (% of baseline) on study day 32,"male C57BL/6N DIO mice; oral BID, DA 23.1 mg/kg or DB 26.8 mg/kg, day 32",102.8 % of baseline
same,Mean normalized body weight (% of baseline) on study day 34,"male C57BL/6N DIO mice; oral BID, DA 23.1 mg/kg or DB 26.8 mg/kg, day 34",103.6 % of baseline
same,Mean normalized body weight (% of baseline) on study day 36,"male C57BL/6N DIO mice; oral BID, DA 23.1 mg/kg or DB 26.8 mg/kg, day 36",104.1 % of baseline
same,Mean normalized body weight (% of baseline) on study day 39,"male C57BL/6N DIO mice; oral BID, DA 23.1 mg/kg or DB 26.8 mg/kg, day 39",104.7 % of baseline
same,Mean normalized body weight (% of baseline) on study day 41,"male C57BL/6N DIO mice; oral BID, DA 23.1 mg/kg or DB 26.8 mg/kg, day 41",105.3 % of baseline
same,Mean normalized body weight (% of baseline) on study day 46,"male C57BL/6N DIO mice; oral BID, DA 23.1 mg/kg or DB 26.8 mg/kg, day 46",106.0 % of baseline
same,Mean normalized body weight (% of baseline) on study day 49,"male C57BL/6N DIO mice; oral BID, DA 23.1 mg/kg or DB 26.8 mg/kg, day 49",107.8 % of baseline
same,Mean normalized body weight (% of baseline) on study day 51,"male C57BL/6N DIO mice; oral BID, DA 23.1 mg/kg or DB 26.8 mg/kg, day 51",107.8 % of baseline
same,Mean normalized body weight (% of baseline) on study day 53,"male C57BL/6N DIO mice; oral BID, DA 23.1 mg/kg or DB 26.8 mg/kg, day 53",107.4 % of baseline
same,Mean normalized body weight (% of baseline) on study day 56,"male C57BL/6N DIO mice; oral BID, DA 23.1 mg/kg or DB 26.8 mg/kg, day 56",108.4 % of baseline
same,Food intake and weight gain in rodent obesity models,rodent obesity models,suppressed food intake and inhibited weight gain
same,Nutrient volume tolerance and satiation,healthy volunteers; 1 μmol/kg DB,decreased nutrient volume tolerance and increased satiation
same,"Gastric motility, nutrient volume tolerance, hunger ratings and satiation",healthy volunteers; intragastric administration,"attenuated inter-digestive gastric motility, reduced nutrient volume tolerance, decreased hunger ratings, and increased satiation post meal"
"CC(=O)[O-].CC[N+](CC)(CC(=O)Nc1c(C)cccc1C)Cc1ccccc1 [DA, Denatonium acetate]","Food intake reduction, DA versus DB",male SD rats; 23.1 mg/kg DA (57.4 μmol/kg) vs 26.8 mg/kg DB (60 μmol/kg),a greater food intake reduction
same,Cumulative food intake as compared with vehicle,male SD rats,reduced cumulative food intake
same,"Body weight gain, DA versus DB","male C57BL/6N DIO mice; Day 34 to Day 56, 23.1 mg/kg DA vs 26.8 mg/kg DB",body weight gain was less
same,"Food consumption, DA versus DB","male C57BL/6N DIO mice; all indicated measurement days except for Day 42, 23.1 mg/kg DA vs 26.8 mg/kg DB",food consumption was less
same,Body weight gain as compared to vehicle treatment,"male C57BL/6N DIO mice; DA 23.1 mg/kg, DB 26.8 mg/kg",less body weight gain
same,Food consumption compared to vehicle-dosed mice,"male C57BL/6N DIO mice; oral BID, 56 days, DA 23.1 mg/kg, DB 26.8 mg/kg",nominally decreased food consumption
same,Mean normalized body weight (% of baseline) on study day 0,male C57BL/6N DIO mice; [2],100.0 % of baseline
same,Mean normalized body weight (% of baseline) on study day 25,male C57BL/6N DIO mice; [2],100.0 % of baseline
same,Mean normalized body weight (% of baseline) on study day 28,male C57BL/6N DIO mice; [2],100.0 % of baseline
same,Mean normalized body weight (% of baseline) on study day 30,male C57BL/6N DIO mice; [2],100.0 % of baseline
same,Average body weights at the indicated days (FIG. 1),[1]; 56 days,lowest average body weights
same,Serum insulin at the end of the 56 day study (FIG. 3),[1]; versus pre-treatment baseline and vehicle,"close to baseline value (i.e., pre-treatment) and noticeably lower compared to the vehicle-treated group"

# — patent US20220280457A1, “ORAL PHARMACEUTICAL IMMEDIATE RELEASE COMPOSITION AND METHOD OF TREATMENT FOR WEIGHT LOSS” (AARDVARK THERAPEUTICS INC., priority 2019, published 2022)
